In ChEMBL document CHEMBL4346660, “Cryptolepine and aromathecin based mimics as potent G-quadruplex-binding, DNA-cleavage and anticancer agents: Design, synthesis and DNA targeting-induced apoptosis” (Eur J Med Chem, 2019):
Activity calls are given as the source filed them. The rule behind the calls is not given here.

How the values were obtained:
MGC-803 [1] = test: Antitumor activity against human MGC803 cells xenografted in BALB/C mouse assessed as tumor growth inhibition at 12 mg/kg, ip administered every other day for 2 weeks measured during compound dosing relative to control; format: functional; details: MGC-803, ip, 336 h
Quadruplex DNA [2] = test: Binding affinity to human Pu27 G-quadruplex DNA assessed as Stern-Volmer quenching constant by fluorometric titration assay; format: nucleic-acid assay
MGC-803 [3] = test: Induction of apoptosis in human MGC803 cells assessed as late apoptotic cells at 0.5 uM incubated for 24 hrs by Annexin V-FITC/propidium iodide staining based flow cytometry (reference value: 0.69 +/- 0.05 %); format: functional
Calf thymus DNA [4] = test: Inhibition of ethidium bromide binding to calf thymus DNA assessed as Stern-Volmer quenching constant by fluorescence spectra analysis; format: nucleic-acid assay; details: Bos taurus
MGC-803 [5] = test: Induction of apoptosis in human MGC803 cells assessed as necrotic cells at 2.5 uM incubated for 24 hrs by Annexin V-FITC/propidium iodide staining based flow cytometry (reference value: 1.81 +/- 0.09 %); format: functional
MGC-803 [6] = test: Induction of apoptosis in human MGC803 cells assessed as necrotic cells at 1 uM incubated for 24 hrs by Annexin V-FITC/propidium iodide staining based flow cytometry (reference value: 1.81 +/- 0.09 %); format: functional
MGC-803 [7] = test: Induction of apoptosis in human MGC803 cells assessed as activated caspase-9 level at 2.5 uM after 24 hrs by FITC staining-based flow cytometric analysis (Rvb= 3.14%); format: functional
MGC-803 [8] = test: Induction of apoptosis in human MGC803 cells assessed as formation of apoptotic bodies at 2.5 uM after 24 hrs by Hoechst 33258 staining-based fluorescence microscopic method; format: functional, cell-based
MGC-803 [9] = test: Induction of apoptosis in human MGC803 cells assessed as viable cells at 0.5 uM incubated for 24 hrs by Annexin V-FITC/propidium iodide staining based flow cytometry (reference value: 96.53+/-2.11%); format: functional; details: MGC-803, 24 h, read-out: Activity
MGC-803 [10] = test: Induction of apoptosis in human MGC803 cells assessed as increase in intracellular calcium release incubated for 24 hrs by […] AM dye-based flow cytometric analysis; format: functional, cell-based
MGC-803 [11] = test: Induction of apoptosis in human MGC803 cells assessed as decrease in Bcl-xL expression at 0.5 to 2.5 uM after 24 hrs by Western blot analysis; format: functional, cell-based
Calf thymus DNA [12] = test: Binding affinity to calf thymus DNA at 10 uM incubated for 5 mins by CD spectroscopy; format: nucleic-acid assay; details: Bos taurus
Calf thymus DNA [13] = test: Binding affinity to calf thymus DNA assessed as hyperchromic effect at 10:1 compound to DNA ratio incubated for 5 mins by UV-Vis spectroscopy; format: nucleic-acid assay; details: Bos taurus
MGC-803 [14] = test: Induction of mitochondrial membrane potential loss in human MGC803 cells at 0.5 to 2.5 uM measured after 24 by JC1 staining-based microscopic analysis; format: functional, cell-based
MGC-803 [15] = test: Induction of apoptosis in human MGC803 cells assessed as increase in ROS generation incubated for 24 hrs by DCFH-DA dye-based flow cytometric analysis; format: functional, cell-based
MGC-803 [16] = test: Cell cycle arrest in human MGC803 cells assessed as accumulation of cells at S phase at 0.5 uM incubated for 48 hrs by propidium iodide staining based flow cytometry (reference value: 32.97%); format: functional
MGC-803 [17] = test: Cell cycle arrest in human MGC803 cells assessed as change in cyclin E2 expression at 0.5 to 2.5 uM incubated for 24 hrs by immunoblot analysis; format: functional, cell-based
MGC-803 [18] = test: Induction of apoptosis in human MGC803 cells assessed as viable cells at 2.5 uM incubated for 24 hrs by Annexin V-FITC/propidium iodide staining based flow cytometry (reference value: 96.53+/-2.11%); format: functional; details: MGC-803, 24 h, read-out: Activity
MGC-803 [19] = test: Cell cycle arrest in human MGC803 cells assessed as accumulation of cells at G1 phase at 0.5 uM incubated for 48 hrs by propidium iodide staining-based flow cytometry (reference value: 53.96%); format: functional
Quadruplex DNA [20] = test: Binding affinity to human HTG21 G-quadruplex DNA assessed as Stern-Volmer quenching constant by fluorometric titration assay; format: nucleic-acid assay
L02 = test: Cytotoxicity against human HL7702 cells assessed as reduction in cell viability incubated for 48 hrs by MTT assay; format: cell-based; details: L02, 48 h
MGC-803 [21] = test: Induction of apoptosis in human MGC803 cells assessed as increase in Bim levels at 0.5 to 2.5 uM after 24 hrs by Western blot analysis; format: functional, cell-based
MGC-803 [22] = test: Cell cycle arrest in human MGC803 cells assessed as increase in p21 expression at 0.5 to 2.5 uM incubated for 24 hrs by Western blot analysis; format: functional, cell-based
NCI-H460 = test: Antiproliferative activity against human NCI-H460 cells assessed as reduction in cell viability incubated for 48 hrs by MTT assay; format: functional, cell-based; details: NCI-H460, 48 h
MGC-803 [23] = test: Induction of mitochondrial membrane depolarization in human MGC803 cells at 0.5 uM incubated for 24 hrs by JC-1 dye-based flow cytometric analysis (Rvb 3.37%); format: functional
MGC-803 [24] = test: Induction of apoptosis in human MGC803 cells assessed as increase in cytochrome-c expression at 0.5 to 2.5 uM after 24 hrs by Western blot analysis; format: functional, cell-based
MGC-803 [25] = test: Antitumor activity against human MGC803 cells xenografted in BALB/C mouse assessed as tumor growth inhibition at 6 mg/kg, ip administered every other day for 2 weeks measured during compound dosing relative to control; format: functional; details: MGC-803, ip, 336 h, read-out: TGI
MGC-803 [26] = test: Induction of apoptosis in human MGC803 cells assessed as increase in Apaf-1 expression at 0.5 to 2.5 uM after 24 hrs by Western blot analysis; format: functional, cell-based
MGC-803 [27] = test: Cell cycle arrest in human MGC803 cells assessed as accumulation of cells at G1 phase at 1 uM incubated for 48 hrs by propidium iodide staining-based flow cytometry (reference value: 53.96%); format: functional
MGC-803 [28] = test: Induction of apoptosis in human MGC803 cells assessed as appearance of irregular cell shape at 2.5 uM after 24 hrs by Hoechst 33258 staining-based fluorescence microscopic method; format: functional
MGC-803 [29] = test: Induction of mitochondrial membrane depolarization in human MGC803 cells at 2.5 uM incubated for 24 hrs by JC-1 dye-based flow cytometric analysis (Rvb 3.37%); format: functional
MGC-803 [30] = test: Antiproliferative activity against human MGC803 cells assessed as reduction in cell viability incubated for 48 hrs by MTT assay; format: functional, cell-based; details: MGC-803, 48 h
MGC-803 [31] = test: Antiproliferative activity against human MGC803 cells assessed as inhibition of cell proliferation at 10 uM measured for 12 to 72 hrs by MTT assay relative to control; format: functional
Quadruplex DNA [32] = test: Binding affinity to human c-Kit-1 G-quadruplex DNA assessed as Stern-Volmer quenching constant by fluorometric titration assay; format: nucleic-acid assay
MGC-803 [33] = test: Cell cycle arrest in human MGC803 cells assessed as down regulation of cyclin B1 expression at 0.5 to 2.5 uM incubated for 24 hrs by Western blot analysis; format: functional, cell-based
MGC-803 [34] = test: Induction of apoptosis in human MGC803 cells assessed as early apoptotic cells at 2.5 uM incubated for 24 hrs by Annexin V-FITC/propidium iodide staining based flow cytometry (reference value: 0.97 +/- 0.10 %); format: functional

Kq (Quadruplex DNA [2]): 1.5 ×10⁷ No_unit
Kq (Calf thymus DNA [4]): 5.92 ×10⁴ No_unit
Activity (Calf thymus DNA [12]): Active
Activity (Calf thymus DNA [13]): Active
Kq (Quadruplex DNA [20]): 1.56 ×10⁷ No_unit
IC50 (NCI-H460): 1960 nM
IC50 (MGC-803 [30]): 970 nM
Kq (Quadruplex DNA [32]): 6.26 ×10⁶ No_unit
Compound: CN(C)CCCNc1c2c(nc3ccc(F)cc13)-c1ccccc1C2
inhibition in vivo at 12 mg/kg (MGC-803 [1]): 53.2%
Activity (MGC-803 [3]): 4.15%
Activity (MGC-803 [5]): 4.01%
Activity (MGC-803 [6]): 4.69%
Activity (MGC-803 [7]): 46.9%
Activity (MGC-803 [8]): Active
viability at 0.5 µM (MGC-803 [9]): 80.3%
Activity (MGC-803 [10]): Dose-dependent effect
Activity (MGC-803 [11]): Active
Activity (MGC-803 [14]): Active
Activity (MGC-803 [15]): Dose-dependent effect
Activity (MGC-803 [16]): 44.73%
Activity (MGC-803 [17]): inactive
viability at 2.5 µM (MGC-803 [18]): 37.3%
Activity (MGC-803 [19]): 51.5%
IC50 (L02): 1570 nM
Activity (MGC-803 [21]): Active
Activity (MGC-803 [22]): Active
Activity (MGC-803 [23]): 23.6%
Activity (MGC-803 [24]): Active
inhibition in vivo at 6 mg/kg (MGC-803 [25]): 31.2%
Activity (MGC-803 [26]): Active
Activity (MGC-803 [27]): 24.11%
Activity (MGC-803 [28]): Active
Activity (MGC-803 [29]): 97.5%
inhibition at 10 µM (MGC-803 [31]): 40 to 95%
Activity (MGC-803 [33]): Active
Activity (MGC-803 [34]): 51.2%
